Experimental data published in ChEMBL document CHEMBL1201862, “PubChem BioAssay data set” (2004).
Calls of active or inactive are those of the source.

Assays:
[1] = biological target: Estrogen receptor beta (Homo sapiens, UniProt Q92731);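 further: recombinant ER-beta bound to coactivator SRC1 peptide in presence of estradiol agonist; inhibitors block coactivator peptide binding and lower the FRET signal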
[2] = Luminescence-based dose response cell-based high throughput screening assay for cytotoxic compounds using the IEC-6 intestinal epithelial cell line. [Related pubchem assays: 1858 (Summary AID.), 1825 (Counterscreen.), 1907 (Confirmation screen.)]; assay type: functional
[3] = HEK-293T viability loss after treatment – luminescence, T-cell screen hits, cytotoxicity control for TCR NF-kB inhibitor project, dose response (AID 489026); assay type: functional, cell-based;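 further: cells exposed to compound about 14 hours before the viability readout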
[4] = biological target: Epstein-Barr nuclear antigen 1 (Epstein-Barr virus (strain B95-8) (HHV-4) (Human herpesvirus 4), UniProt P03211); experiment: inhibition of EBV nuclear antigen 1 DNA binding – biochemical, fluorescence polarization, 1536-well, dose response (AID 2381); parameters: species or system human gammaherpesvirus 4;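 further: fluorescence polarization of a Cy5 DNA probe bound by EBNA-1 protein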
Epstein-Barr nuclear antigen 1, sequence (P03211 whole entry): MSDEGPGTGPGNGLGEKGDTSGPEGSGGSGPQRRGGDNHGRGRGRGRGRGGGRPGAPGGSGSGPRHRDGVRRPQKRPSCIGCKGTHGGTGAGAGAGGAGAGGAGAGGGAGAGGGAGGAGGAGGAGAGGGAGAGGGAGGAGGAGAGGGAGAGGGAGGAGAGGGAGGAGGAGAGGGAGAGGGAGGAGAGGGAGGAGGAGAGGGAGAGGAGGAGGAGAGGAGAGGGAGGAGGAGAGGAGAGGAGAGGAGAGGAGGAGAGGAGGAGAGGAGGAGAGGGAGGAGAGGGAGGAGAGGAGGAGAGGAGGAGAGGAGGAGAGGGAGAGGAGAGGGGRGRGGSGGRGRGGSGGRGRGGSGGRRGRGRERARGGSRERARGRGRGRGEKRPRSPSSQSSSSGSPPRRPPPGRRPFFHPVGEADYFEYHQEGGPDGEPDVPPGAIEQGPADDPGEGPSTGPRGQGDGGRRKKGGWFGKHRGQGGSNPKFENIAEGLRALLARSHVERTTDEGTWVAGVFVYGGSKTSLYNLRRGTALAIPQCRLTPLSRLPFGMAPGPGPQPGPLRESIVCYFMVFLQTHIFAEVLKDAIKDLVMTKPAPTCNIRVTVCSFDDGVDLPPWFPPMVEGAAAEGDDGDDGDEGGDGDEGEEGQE

[5] = biological target: Lytic switch protein BZLF1 (Epstein-Barr virus (strain B95-8) (HHV-4) (Human herpesvirus 4), UniProt P03206); experiment: inhibition of BZLF1 ZTA DNA binding – biochemical, fluorescence polarization, Epstein-Barr virus, 1536-well, counter-screen for EBNA-1 inhibitor project, dose response (AID 2377); parameters: species or system human gammaherpesvirus 4;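 further: fluorescence polarization of Cy5-labelled ZRE DNA probe bound by purified Zta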
Lytic switch protein BZLF1, sequence (P03206 whole entry): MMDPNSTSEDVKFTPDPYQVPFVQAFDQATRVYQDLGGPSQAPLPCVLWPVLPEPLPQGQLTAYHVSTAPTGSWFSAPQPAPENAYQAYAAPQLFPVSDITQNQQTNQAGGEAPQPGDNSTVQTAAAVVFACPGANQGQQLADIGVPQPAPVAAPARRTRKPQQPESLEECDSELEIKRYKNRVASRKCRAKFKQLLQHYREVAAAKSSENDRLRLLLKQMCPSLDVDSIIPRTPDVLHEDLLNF

[6] = biological target: Sphingosine 1-phosphate receptor 2 (Homo sapiens, UniProt O95136); experiment: Dose Response Cell Based Assay for Agonists of the S1P2 Receptor of Purchased Analogues. [Related pubchem assays: 729, 843, 854, 736 ]; assay type: functional
Sphingosine 1-phosphate receptor 2, sequence (O95136 whole entry): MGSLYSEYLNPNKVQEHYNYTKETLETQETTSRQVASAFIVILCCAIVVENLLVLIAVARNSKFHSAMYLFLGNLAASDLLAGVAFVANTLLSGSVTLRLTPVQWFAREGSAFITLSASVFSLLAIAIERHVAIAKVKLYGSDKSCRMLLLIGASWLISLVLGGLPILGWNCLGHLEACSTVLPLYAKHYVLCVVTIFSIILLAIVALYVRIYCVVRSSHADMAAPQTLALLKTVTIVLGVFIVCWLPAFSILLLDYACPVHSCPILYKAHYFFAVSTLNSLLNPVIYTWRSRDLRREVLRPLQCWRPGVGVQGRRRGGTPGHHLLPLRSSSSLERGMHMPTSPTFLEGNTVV

[7] = biological target: Prothrombin (Homo sapiens, UniProt P00734); experiment: Thrombin 1536 HTS Dose Response Confirmation. [Related pubchem assays: 1046 (Thrombin 1536 HTS; hits were confirmed in this assay)]; assay type: functional
[8] = biological target: Ephrin type-A receptor 4 (Mus musculus, UniProt Q03137); experiment: EphA4 ligand-binding antagonists – biochemical, colorimetric, mouse EphA4, primary screen (AID 689); assay type: functional
[9] = fluconazole-exposed Candida albicans growth modulators – fluorescence, retest, confirmation (AID 2467); assay type: functional, cell-based
[10] = NIH-3T3 fibroblast cytotoxicity, dose response, cytotoxicity control, cell-based, fluorescence, Alamar Blue, secondary assay (AID 2327); assay type: functional;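 further: NIH-3T3 mouse fibroblasts cultured with fluconazole at 8 µg/mL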
[11] = biological target: fMet-Leu-Phe receptor (Homo sapiens, UniProt P21462); experiment: formyl peptide receptor binders – dose response (AID 519); assay type: functional
fMet-Leu-Phe receptor, sequence (P21462 whole entry): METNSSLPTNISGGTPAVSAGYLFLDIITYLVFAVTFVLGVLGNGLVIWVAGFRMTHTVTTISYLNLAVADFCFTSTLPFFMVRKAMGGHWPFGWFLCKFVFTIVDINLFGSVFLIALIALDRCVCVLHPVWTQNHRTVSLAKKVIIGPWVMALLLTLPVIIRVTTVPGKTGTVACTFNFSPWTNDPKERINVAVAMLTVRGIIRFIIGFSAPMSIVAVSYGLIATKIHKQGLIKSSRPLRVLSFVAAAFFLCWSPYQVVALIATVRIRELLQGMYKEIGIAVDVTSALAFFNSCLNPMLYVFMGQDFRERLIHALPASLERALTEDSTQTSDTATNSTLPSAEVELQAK

[12] = biological target: Cytochrome P450 2C9 (Homo sapiens, UniProt P11712)
[13] = biological target: Voltage-gated inwardly rectifying potassium channel KCNH2 (Homo sapiens, UniProt Q12809); experiment: concentration-dependent hERG rescue from blockers – cell-based, thallium flux, dose response (AID 2121); assay type: ADME
[14] = Shn3 3'UTR reporter signal decrease – cell-based, Clone20 osteoblasts, firefly luciferase, cherry-pick, set 2, Schnurri-3 inhibitor project, dose response (AID 720490); assay type: functional;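 further: actives lower the luminescence signal as inhibitors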
[15] = non-specific 3'UTR reporter inhibition in Clone20-Shn3RL – cell-based, Renilla luciferase, cherry-picked, counter-screen for Shn3 inhibitor project, dose response (AID 624133); assay type: functional
[16] = reduction of Shn3 3'UTR-driven luciferase in osteoblasts – cell-based, Clone20 osteoblasts, firefly luciferase, cherry-picked, dose response (AID 624132); assay type: functional;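 further: firefly luciferase luminescence from reporter carrying the Shn3 3'UTR in osteoblasts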
[17] = loss of viability in HepG2 cells – cell-based, CellTiter-Glo, cherry-picked, cytotoxicity control for Shn3 inhibitor project, dose response (AID 624134); assay type: functional
[18] = biological target: Cytochrome P450 2C19 (Homo sapiens, UniProt P33261); experiment: Cytochrome panel assay with activity outcomes. Panel member name: p450-cyp2c19 Compounds with AC50 equal or less than 10 uM are considered active; assay type: functional; details: read-out: AC50
[19] = biological target: Caspase-6 (Homo sapiens, UniProt P55212); experiment: inhibition of CASP6 peptide cleavage – biochemical, VEID-R110 fluorescence, cherry-pick, dose response (AID 720632)
Caspase-6, sequence (P55212 24-179 limits assumed): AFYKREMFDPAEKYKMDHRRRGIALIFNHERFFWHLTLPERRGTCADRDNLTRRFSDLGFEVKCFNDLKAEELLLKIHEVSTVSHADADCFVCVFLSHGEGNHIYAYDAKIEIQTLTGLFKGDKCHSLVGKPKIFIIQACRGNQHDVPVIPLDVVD
Caspase-6, sequence (P55212 194-293 limits assumed): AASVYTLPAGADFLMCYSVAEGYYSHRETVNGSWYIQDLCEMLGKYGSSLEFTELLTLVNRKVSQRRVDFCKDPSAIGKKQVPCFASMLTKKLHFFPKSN

[20] = cells
[21] = biological target: Major prion protein (Homo sapiens, UniProt P04156); assay type: functional, cell-based
[22] = Luminescence Cell-Based Dose Response HTS to Identify Activators of Luciferase Translation or Activity in H4 […] Cells. [Related pubchem assays: 1829 (Project Summary), 1814 (Primary HTS)]; assay type: functional
[23] = system: H4; experiment: Luminescence Cell-Based Dose Response HTS to Identify Activators of 5'UTR Stem-Loop Driven Prion Protein mRNA Translation in H4 Neuroglioblastoma Cells. [Related pubchem assays: 1829 (Project Summary), 1814 (Primary HTS)]; assay type: functional; details: Homo sapiens
[24] = Luminescence Cell-Based Dose Response to Identify Activators of 5'UTR Stem-Loop Driven Prion Protein mRNA Translation in H4-C Neuroglioblastoma Cells. [Related pubchem assays: 1829 (Project Summary), 1814 (Primary HTS)]; assay type: functional
[25] = Luminescence Cell-Based Dose Confirmation to Identify Activators of 5'UTR Stem-Loop Driven Alpha-Synuclein mRNA Translation in H4 Neuroglioblastoma Cells. [Related pubchem assays: 1829 (Project Summary), 1814 (Primary HTS)]; assay type: functional
[26] = Luminescence Cell-Based Dose Response to Identify Activators of Luciferase Translation or Activity in H4-C Neuroglioblastoma Cells. [Related pubchem assays: 1829 (Project Summary), 1814 (Primary HTS)]; assay type: functional
[27] = biological target: T1, Voltage-gated N-type calcium channel alpha-1B subunit/Amyloid beta A4 precursor protein-binding family A member 1 (Homo sapiens, UniProt Q00975+Q02410); assay type: protein assay
T1 sequence (Q00975 whole entry): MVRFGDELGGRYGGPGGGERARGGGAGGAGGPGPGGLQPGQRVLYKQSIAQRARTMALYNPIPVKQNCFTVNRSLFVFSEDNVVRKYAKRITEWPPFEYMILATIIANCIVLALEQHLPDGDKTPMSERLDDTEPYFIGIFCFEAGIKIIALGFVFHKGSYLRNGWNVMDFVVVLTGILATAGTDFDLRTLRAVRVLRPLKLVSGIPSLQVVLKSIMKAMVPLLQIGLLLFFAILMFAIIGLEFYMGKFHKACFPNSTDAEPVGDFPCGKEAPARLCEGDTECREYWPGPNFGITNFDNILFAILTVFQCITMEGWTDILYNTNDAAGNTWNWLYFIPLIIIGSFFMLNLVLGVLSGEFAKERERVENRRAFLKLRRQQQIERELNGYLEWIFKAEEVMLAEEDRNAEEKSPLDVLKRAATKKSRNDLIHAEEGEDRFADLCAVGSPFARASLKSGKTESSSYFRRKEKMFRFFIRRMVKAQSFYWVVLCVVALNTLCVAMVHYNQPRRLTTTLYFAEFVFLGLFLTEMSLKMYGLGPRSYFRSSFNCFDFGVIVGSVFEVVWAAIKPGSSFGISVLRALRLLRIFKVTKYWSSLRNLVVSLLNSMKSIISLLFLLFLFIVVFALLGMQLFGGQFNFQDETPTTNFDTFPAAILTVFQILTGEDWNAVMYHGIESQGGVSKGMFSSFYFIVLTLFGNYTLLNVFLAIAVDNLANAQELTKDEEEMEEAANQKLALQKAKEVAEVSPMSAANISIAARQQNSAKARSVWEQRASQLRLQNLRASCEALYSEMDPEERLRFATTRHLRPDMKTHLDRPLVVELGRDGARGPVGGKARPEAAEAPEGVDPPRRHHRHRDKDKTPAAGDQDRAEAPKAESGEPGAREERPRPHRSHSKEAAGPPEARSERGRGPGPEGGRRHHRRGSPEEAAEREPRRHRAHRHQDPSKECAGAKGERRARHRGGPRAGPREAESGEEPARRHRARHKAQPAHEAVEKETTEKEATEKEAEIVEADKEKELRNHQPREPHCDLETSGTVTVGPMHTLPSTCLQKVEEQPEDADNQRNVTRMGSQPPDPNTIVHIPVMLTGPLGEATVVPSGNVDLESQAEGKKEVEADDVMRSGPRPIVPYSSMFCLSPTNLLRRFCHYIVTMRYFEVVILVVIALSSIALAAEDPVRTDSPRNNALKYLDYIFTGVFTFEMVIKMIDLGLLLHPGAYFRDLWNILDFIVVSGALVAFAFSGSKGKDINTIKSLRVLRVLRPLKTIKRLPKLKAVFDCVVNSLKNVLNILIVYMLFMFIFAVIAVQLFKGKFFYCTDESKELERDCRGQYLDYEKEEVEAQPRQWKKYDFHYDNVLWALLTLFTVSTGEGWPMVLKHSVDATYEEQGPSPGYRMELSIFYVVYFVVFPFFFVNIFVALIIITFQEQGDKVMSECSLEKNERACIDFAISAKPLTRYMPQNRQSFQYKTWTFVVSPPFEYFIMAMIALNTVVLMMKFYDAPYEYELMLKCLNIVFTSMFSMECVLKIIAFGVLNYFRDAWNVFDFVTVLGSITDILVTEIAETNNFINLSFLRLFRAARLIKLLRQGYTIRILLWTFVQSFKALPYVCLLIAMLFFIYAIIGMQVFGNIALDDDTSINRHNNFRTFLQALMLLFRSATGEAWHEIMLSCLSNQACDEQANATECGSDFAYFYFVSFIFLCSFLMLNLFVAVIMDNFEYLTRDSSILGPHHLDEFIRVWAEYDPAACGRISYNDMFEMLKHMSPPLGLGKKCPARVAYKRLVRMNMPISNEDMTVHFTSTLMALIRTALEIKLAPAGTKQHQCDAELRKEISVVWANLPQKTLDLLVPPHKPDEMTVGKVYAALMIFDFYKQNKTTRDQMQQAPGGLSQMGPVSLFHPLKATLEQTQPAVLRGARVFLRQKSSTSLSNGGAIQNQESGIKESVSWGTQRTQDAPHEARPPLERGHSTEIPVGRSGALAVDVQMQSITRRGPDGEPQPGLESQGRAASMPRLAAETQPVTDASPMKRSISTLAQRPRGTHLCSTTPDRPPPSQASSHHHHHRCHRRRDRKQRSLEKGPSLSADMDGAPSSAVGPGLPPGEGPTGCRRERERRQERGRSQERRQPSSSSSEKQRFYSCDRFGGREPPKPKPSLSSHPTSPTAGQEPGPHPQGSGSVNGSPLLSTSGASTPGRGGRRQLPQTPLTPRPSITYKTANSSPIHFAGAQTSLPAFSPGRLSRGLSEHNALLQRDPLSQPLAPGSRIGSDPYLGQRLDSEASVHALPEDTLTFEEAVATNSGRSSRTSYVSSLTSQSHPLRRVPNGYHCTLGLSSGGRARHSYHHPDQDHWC
T1 sequence (Q02410 whole entry): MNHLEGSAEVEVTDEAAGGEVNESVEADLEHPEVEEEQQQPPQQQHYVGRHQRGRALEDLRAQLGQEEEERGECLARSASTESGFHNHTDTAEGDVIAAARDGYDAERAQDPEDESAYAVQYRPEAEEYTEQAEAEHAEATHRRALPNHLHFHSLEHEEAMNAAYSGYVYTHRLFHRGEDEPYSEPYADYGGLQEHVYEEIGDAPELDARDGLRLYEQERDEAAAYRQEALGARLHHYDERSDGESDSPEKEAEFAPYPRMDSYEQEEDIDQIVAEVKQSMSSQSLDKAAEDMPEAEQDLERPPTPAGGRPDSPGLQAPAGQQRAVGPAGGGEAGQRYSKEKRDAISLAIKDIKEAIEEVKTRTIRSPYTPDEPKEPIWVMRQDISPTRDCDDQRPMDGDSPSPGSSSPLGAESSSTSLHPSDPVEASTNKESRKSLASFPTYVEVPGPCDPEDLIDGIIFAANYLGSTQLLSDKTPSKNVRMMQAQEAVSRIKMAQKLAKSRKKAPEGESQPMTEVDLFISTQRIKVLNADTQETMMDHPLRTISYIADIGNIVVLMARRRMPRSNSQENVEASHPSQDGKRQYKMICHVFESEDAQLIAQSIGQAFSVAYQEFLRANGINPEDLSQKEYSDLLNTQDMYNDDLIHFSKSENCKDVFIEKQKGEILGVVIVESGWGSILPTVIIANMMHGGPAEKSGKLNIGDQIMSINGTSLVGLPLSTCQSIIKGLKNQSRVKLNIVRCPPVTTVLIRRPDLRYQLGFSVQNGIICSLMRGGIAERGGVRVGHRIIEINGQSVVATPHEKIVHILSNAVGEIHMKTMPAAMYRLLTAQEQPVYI

[28] = biological target: T1, Voltage-gated N-type calcium channel alpha-1B subunit/Amyloid beta A4 precursor protein-binding family A member 1; assay type: protein assay; remark: listed apart in the source
[29] = biological target: Nonstructural protein 1 (Influenza A virus, UniProt Q194T2); assay type: functional, Influenza A virus (A/California/07/2009(H1N1))
[30] = NIH3T3 cell viability loss – ATP luminescence, mouse fibroblasts, counter-screen, dose response (AID 2010); assay type: functional, cell-based;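 further: cells exposed to compound for about 90 hours before reading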
[31] = Trypanosoma cruzi growth suppression in host cells – NIH3T3 host cells, beta-gal luminescence, confirmation (AID 2044); assay type: functional, cell-based;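 further: intracellular parasites grown in NIH/3T3 mouse fibroblasts as host cells; luminescent beta-galactosidase reporter signal from transgenic T. cruzi replicating inside host cells; inhibitors lower the luminescence signal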
[32] = cells; assay type: functional, cell-based
[33] = system: INS1; experiment: INS-1E survival protection against cytokine death – cell-based, luminescence, retest, dose response (AID 449756); assay type: functional; details: Rattus norvegicus;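 further: cell death triggered by IL-1 beta plus TNF-alpha plus IFN-gamma mixture; protective hits raise ATP signal compared with cytokine alone wells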
[34] = cells; assay type: functional, cell-based; remark: listed apart in the source
[35] = MITF: Counter assay: A375 proliferation Measured in Cell-Based System Using Plate Reader - 2084-03_Inhibitor_Dose_DryPowder_Activity_Set8.; assay type: functional; details: A-375
[36] = inhibitors of TRPM1-promoter reporter in SK-MEL-5 – cell-based, luciferase, dry powder, set 8, MITF inhibitor project, dose response (AID 624430); assay type: functional
[37] = MITF Orthogonal Assay: SK-MEL-5 CTG Assay Measured in Cell-Based System Using Plate Reader - 2084-02_Inhibitor_Dose_DryPowder_Activity_Set7.; assay type: functional
[38] = system: Streptococcus sp. 'group A'; experiment: Streptococcus pyogenes SK(-)GAS viability under kanamycin – luminescence, BacTiterGlo, confirmation, counter-screen for streptokinase expression inhibitor project, dose response (AID 1900); assay type: functional, organism-based
[39] = biological target: T2, Streptokinase A (Streptococcus pyogenes serotype M1, UniProt P10520); experiment: viability-normalized secreted streptokinase activity reduction – plasminogen activation absorbance, OD405, dose response (AID 1914); assay type: functional, Streptococcus pyogenes M1 GAS;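 further: secreted streptokinase activity via plasminogen activation per viability signal from cell pellet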
T2 sequence (P10520 whole entry): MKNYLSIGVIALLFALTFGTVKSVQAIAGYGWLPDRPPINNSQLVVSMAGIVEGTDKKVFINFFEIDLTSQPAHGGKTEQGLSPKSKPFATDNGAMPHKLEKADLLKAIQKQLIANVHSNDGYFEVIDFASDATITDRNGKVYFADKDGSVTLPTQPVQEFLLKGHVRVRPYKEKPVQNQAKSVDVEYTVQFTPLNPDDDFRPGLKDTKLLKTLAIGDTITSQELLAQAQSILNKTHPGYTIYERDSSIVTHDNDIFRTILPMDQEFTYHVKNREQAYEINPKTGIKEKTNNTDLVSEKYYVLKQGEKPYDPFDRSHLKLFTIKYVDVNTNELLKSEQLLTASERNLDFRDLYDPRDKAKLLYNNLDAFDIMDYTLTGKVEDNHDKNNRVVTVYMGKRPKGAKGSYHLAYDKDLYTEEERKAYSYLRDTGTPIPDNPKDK

[40] = IC50 of Artemis nuclease activity blockers – biochemical, fluorescence intensity, dose response (AID 720701); assay type: functional;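 further: Artemis endonuclease enzyme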
[41] = system: Streptococcus; experiment: GAS UMAA2166 growth inhibition – luminescence, BacTiterGlo, counter-screen for streptokinase expression inhibitor project, dose response (AID 1915); assay type: functional, organism-based;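 further: potency for reduction of bacterial viability or growth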

## O=S(=O)(c1cccc(-c2nc3ccccc3s2)c1)N1CCOCC1
[1]
  IC50: > 50 µM (not active)

## CC(=O)O[C@H]1C(=O)[C@@]2(C)C([C@H](OC(=O)c3ccccc3)[C@]3(O)C[C@H](OC(=O)[C@H](O)[C@@H](NC(=O)Cc4ccccc4)c4ccccc4)C(C)=C1C3(C)C)[C@]1(OC(C)=O)CO[C@@H]1C[C@@H]2O (some centres not stated)
[2]
  IC50: 0.396 µM (active)
[3]
  IC50: > 80 µM (inactive)

## CNS(=O)(=O)c1cccc(C(=O)OCC(=O)Nc2ccc(-c3nc4ccc(C)cc4s3)cc2)c1
[4]
  IC50: 5.63 µM (active)
[5]
  IC50: > 111 µM (not active)

## Cc1cc(C(=O)CN2C(=O)C(=O)N(Cc3ccco3)C2=O)c(C)n1Cc1ccccc1
[6]
  EC50: > 30 µM (not active)

## Cc1c(Cl)cccc1NC(=O)Cc1ccc([N+](=O)[O-])cc1
[7]
  IC50: > 50 µM (not active)

## Cc1ccc2cc(C=C(C#N)C#N)c(N3CCCCC3)nc2c1
[8]
  IC50: 24.4 µM (active)
[9]
  EC50: > 38 µM (not active)
[10]
  EC50: 46.4 µM (active)

## COc1ccc(NC(=O)C2C(=O)NC3(C)CC2c2ccccc2O3)cc1 (configuration not stated)
[11]
  Ki: > 66.7 µM (inactive)

## COc1ccccc1NC(=S)NC(=O)c1ccc(-c2ccc(Cl)cc2)o1
[12]
  AC50: inconclusive
[13]
  EC50: 0.1 µM (active)

## CC(C)CN(CCC(=O)O)CC(C)C
[1]
  IC50: > 50 µM (not active)

## Cc1ccccc1OCCOC(=O)c1cc(S(=O)(=O)N2CCCCC2)ccc1N1CCOCC1
[14]
  AC50: 4.28 µM (active)
[15]
  AC50: > 70 µM (inactive)
[16]
  AC50: 3.79 µM (active)
[17]
  AC50: > 70 µM (inactive)

## Cc1cc(C(=O)CN2C(=O)C(=O)N(Cc3ccccc3)C2=O)c(C)n1Cc1ccco1
[6]
  EC50: > 30 µM (not active)

## COc1cc(C2C(C(=O)c3ccc(C)o3)=C(O)C(=O)N2CCc2ccccc2)ccc1O (configuration not stated)
[18]
  AC50: 11.2 µM (inconclusive)
[11]
  Ki: 19.7 µM (inactive)

## COc1ccc(CCNC(=O)COC(=O)c2ccc([N+](=O)[O-])o2)cc1
[19]
  AC50: 24.1 µM (active)

## C=CCn1c(=S)[nH]c2cc(-c3ccccc3)sc2c1=O
[13]
  EC50: 1.11 µM (active)

## COc1cccc(N2CC(=O)C(c3nc4ccccc4s3)=C2N)c1
[20]
  IC50: > 138 µM (inactive)
[21]
  IC50: 5.11 µM (active)

## COCc1nc2oc3ccc(C)cc3c(=O)c2cc1C(=O)OC
[22]
  EC50: < 0.1 µM (inconclusive)
[23]
  EC50: > 120 µM (not active)
[24]
  EC50: 0.433 µM (active)
[25]
  EC50: 0.282 µM (active)
[26]
  EC50: 0.402 µM (active)

## O=C(Nc1nc2cc3c(cc2s1)OCCO3)c1ccc(N2C(=O)CCC2=O)cc1
[4]
  IC50: 15.6 µM (not active)
[27]
  IC50: > 50 µM (inactive)
[5]
  IC50: 15.1 µM (not active)
[28]
  IC50: 23 µM (active)

## COc1cccc(C(NC(C)=O)c2ccc3cccnc3c2O)c1 (configuration not stated)
[29]
  IC50: 14.3 µM (active)
[30]
  EC50: 1.07 µM (active)
[9]
  EC50: 1.38 µM (active)
[2]
  IC50: 1.48 µM (active)
[15]
  AC50: 1.04 µM (active)
[31]
  EC50: 1.07 µM (active)
[16]
  AC50: 1.39 µM (active)
[32]
  EC50: > 350 µM (not active)
[10]
  EC50: 3.88 µM (inconclusive)
[17]
  AC50: 2.61 µM (active)
[33]
  AC50: 0.886 µM (active)
[34]
  EC50: 7.47 µM (active)

## CSc1nc(-c2ccco2)nn1C(=O)c1ccco1
[7]
  IC50: 0.22 µM (active)

## COCOCCn1cc(CN2CCS(=O)(=O)N(Cc3ccc(-c4ccc(Cl)c(Cl)c4)cc3)C(C(C)C)C2=O)nn1 (configuration not stated)
[14]
  AC50: 1.86 µM (active)
[15]
  AC50: 7.09 µM (active)
[16]
  AC50: 1.35 µM (active)
[17]
  AC50: > 70 µM (inactive)

## O=C1C(Nc2ccc(F)cc2F)=C(N2CCCCC2)C(=O)c2ccccc21
[35]
  AC50: 21.8 µM (active)
[36]
  AC50: 0.931 µM (active)
[37]
  AC50: 3.64 µM (active)

## CN1C(=O)c2cc(NC(=O)C3CC3)ccc2OC[C@H]2O[C@@H](CC(=O)O)CC[C@@H]21
[19]
  AC50: 23.1 µM (active)

## CCN1CCN(C2=C(Nc3ccc(OC)cc3)C(=O)c3ccccc3C2=O)CC1
[35]
  AC50: > 70 µM (inactive)
[36]
  AC50: 6.87 µM (active)
[37]
  AC50: 12.2 µM (active)

## COc1cc2c(C#N)c(N3CCN(c4ccccc4OC)CC3)nc(N)c2c(N)n1
[38]
  EC50: 4.63 µM (active)
[39]
  EC50: 22.6 µM (active)
[40]
  IC50: > 20 µM (inactive)
[41]
  EC50: > 150 µM (not active)
